The test system of test [1] is ARE-driven luciferase activity in AREc32 cells. The test can be described thus: Antagonism of induced ARE-driven luciferase activity in AREc32 cells. The class given is cell-based, human.
The subject of test [2] is GST, GCLC and NQO1 in the small intestine. The experiment in a line: ARE-regulated proteins in small intestine of mice on vitamin A deficient diet. The test is classed as in vivo. As to conditions: wild-type mice; ATRA i.p. 10 mg/kg daily for last 2 weeks of VAD diet. How it is done:
Wild-type (nrf2^+/+) and knockout (KO, nrf2^−/−) mice, 8 weeks old, were placed on control or vitamin A deficient (VAD) diet for six weeks as described in “Materials and Methods II”. Portions (5 μg protein) of crude extracts from small intestine of wild-type and KO mice were subjected to Western blotting with specific antibodies against NQO1, GstM5, GstA1/2 and GCLC. Each lane contains a sample from an individual mouse. […] These animals were sacrificed and immunoblotting for GST, GCLC and NQO1 performed as before.
Homozygous Nrf2 KO mice and mouse genotyping were as described previously (Itoh et al., 1997). Two month old, C57BL/6 nrf2^−/− and nrf2^+/+ male mice were used in this study. Animals were maintained in a 12-h light-dark cycle, with free access to food and water. The mice were weighed daily during the experiment period. All animal procedures were carried out under UK Home Office license and after gaining local ethical committee approval.
Two feeding experiments were carried out. In Experiment 1, at the first stage, which lasted for four weeks, Nrf2 (+/+) mice were maintained on a retinoic acid deficient VAD diet (Special Diet Services, Witham, Essex, UK). […] In experiment 2, Nrf2 (−/−) mice were maintained on control or VAD diet for six weeks. […]

The subject of test [3] is AKR1C protein in Caco-2 cells. The experiment in a line: AKR1C protein in Caco-2 cells (Western blotting). As to conditions: sulforaphane 5 μM, BTB09463 5 μM or Retinoic acid 1 μM, 24 hrs. The class given is cell-based, human. As to the method:
Method: AREc32 cells were seeded out in 96 well plates and treated with DMSO (control), tBHQ (50 μM), tBHQ+BTB09463 (5 μM) or tBHQ+Retinoic acid (1 μM). After 24 hours incubation, cells were washed and lysed before measuring luciferase activity. BTB09463 is 1-{4-[(3,4-dichlorobenzyl)oxy]phenyl}ethan-1-one. […] Method: AREc32 cells were seeded out in 96 well plates and dosed with BTB09463 (2.5, 5 or 10 μM) for 0, 24 or 48 hrs before treatment with tBHQ (50 μM). 24 hours after the addition of tBHQ, cells were washed and lysed before measuring luciferase activity. […] Method: ARE c32 cells were seeded out in 96 well plates and treated with DMSO (control), tBHQ (50 μM), tBHQ+retinoid (0.25, 0.5 and 1 μM). After 24 hours incubation, cells were washed and lysed before measuring luciferase activity. […] See FIG. 16 Method: A. Caco-2 cells were treated with the known ARE-gene inducer sulforaphane (5 μM), either alone or concomitantly with BTB09463 (5 μM) or Retinoic acid (1 μM). After 24 hrs, cell lysates were prepared and Western blotting performed to measure the levels of AKR1C protein. B. MCF7 cells were treated with sulforaphane (5 μM), either alone or concomitantly with BTB09463 (5 μM). After 24 hrs, cell lysates were prepared and Western blots performed to detect the levels of AKR1C and NQO1; GAPDH was used as a loading control in MCF7 cells. […] Method: Caco-2 cells were treated with DMSO (control), BTB09463 (5 μM), sulforaphane (5 μM) or a combination of sulforaphane plus BTB09463. After 24 hrs treatment, cells were harvested and RNA isolated. cDNA for each sample was generated by reverse transcription and subsequently used in real time PCR analysis of gene transcription (TaqMan analysis) for the ARE-driven genes AKR1C1 and NQO1. Data was normalised to the internal control 18S RNA and the relative levels of AKR1C1 and NQO1 calculated using the comparative CT method. […] Method: MCF7 cells were treated with the known ARE-gene inducer sulforaphane (5 μM), either alone or with various retinoids (0.5 μM). After 24 hrs, cell lysates were prepared and Western blots were performed to detect the levels of AKR1C protein present. […] See FIG. 19 Method: ARE reporter cell line AREc23 was seeded into 96 well plates and treated with a previously determined non-toxic concentration of cytotoxic drug. After 24 hours incubation, cells were washed and lysed before measuring luciferase activity. […] See FIG. 20a Method: ARE reporter cell line AREc23 was seeded into 96 well plates and treated with DMSO (control), Carmustine (100 μM), Carmustine+BTB09463 (5 μM) or Carmustine+Retinoic acid (5 μM) After 24 hours incubation, cells were washed and lysed before measuring luciferase activity. […] After 24 hours incubation, cells were washed and lysed before measuring luciferase activity. […]
(In general: A western blot detects proteins with antibodies after separation by electrophoresis.)

Test [4] has as its system AKR1C1, NQO1, GCLC, GCLM mRNA in A549 cells. The test can be described thus: Constitutive mRNA of ARE-driven genes in A549 cells (Taqman). As to conditions: 24 hrs. The test is classed as cell-based, human. For orientation: In qPCR the cycle at which signal appears reflects the starting amount.
In test [5] the target is interaction between RARα and Nrf2 (Homo sapiens, UniProt P10276). The test can be described thus: Co-immunoprecipitation of RARα and Nrf2. The test is classed as binding. The settings on record: co-immunoprecipitation experiments.
Chain of interaction between RARα and Nrf2 (P10276 whole entry): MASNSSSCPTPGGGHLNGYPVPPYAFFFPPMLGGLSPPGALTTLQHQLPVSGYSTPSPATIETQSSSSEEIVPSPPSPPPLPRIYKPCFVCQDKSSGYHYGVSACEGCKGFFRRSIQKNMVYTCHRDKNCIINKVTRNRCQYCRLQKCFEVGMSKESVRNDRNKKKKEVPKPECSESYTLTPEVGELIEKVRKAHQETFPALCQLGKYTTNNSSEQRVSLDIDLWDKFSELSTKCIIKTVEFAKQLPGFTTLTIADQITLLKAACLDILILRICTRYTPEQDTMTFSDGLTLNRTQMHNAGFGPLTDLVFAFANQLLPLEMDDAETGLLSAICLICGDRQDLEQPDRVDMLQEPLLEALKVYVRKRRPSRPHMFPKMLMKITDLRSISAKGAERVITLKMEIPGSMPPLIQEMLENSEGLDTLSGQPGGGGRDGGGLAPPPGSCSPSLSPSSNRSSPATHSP
Chain of interaction between RARα and Nrf2 (Q16236 whole entry partner): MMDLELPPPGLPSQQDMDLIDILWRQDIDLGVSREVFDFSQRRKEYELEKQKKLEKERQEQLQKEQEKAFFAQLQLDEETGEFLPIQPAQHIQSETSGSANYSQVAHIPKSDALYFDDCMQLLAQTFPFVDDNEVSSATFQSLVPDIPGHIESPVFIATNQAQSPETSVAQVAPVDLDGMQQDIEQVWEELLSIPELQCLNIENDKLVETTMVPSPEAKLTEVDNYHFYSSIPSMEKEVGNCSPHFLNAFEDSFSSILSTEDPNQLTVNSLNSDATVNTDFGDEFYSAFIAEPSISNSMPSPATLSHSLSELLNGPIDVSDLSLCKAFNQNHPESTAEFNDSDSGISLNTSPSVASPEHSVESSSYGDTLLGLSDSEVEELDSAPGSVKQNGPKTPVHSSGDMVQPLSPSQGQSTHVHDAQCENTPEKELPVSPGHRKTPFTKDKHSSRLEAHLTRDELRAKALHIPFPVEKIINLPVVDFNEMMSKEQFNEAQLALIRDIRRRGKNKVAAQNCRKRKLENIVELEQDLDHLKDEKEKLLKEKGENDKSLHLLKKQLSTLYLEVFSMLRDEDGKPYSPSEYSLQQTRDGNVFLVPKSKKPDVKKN
Test [6] has as its system AKR1C mRNA in AREc32 cells. The experiment in a line: AKR1C mRNA in AREc32 cells (TaqMan).
Test [7] deals with AKR1C protein in AREc32 cells. The test can be described thus: AKR1C protein in AREc32 cells (western blotting). As to conditions: 1 μM ATRA, 10 μM tBHQ; scanning of the Western blots.
For a further test, the system named is Nrf2. The experiment in a line: Nuclear Nrf2 level in AREc32 cells (western blot of nuclear extracts). The settings on record: 10 μM tBHQ plus 1 μM ATRA, 24 h.
For test [8], the system named is binding of Nrf2 to an ARE sequence. The test can be described thus: Biotinylated ARE oligonucleotide pull-down assay, AREc32 nuclear extracts. As to conditions: 10 μM tBHQ with 1 μM ATRA, 24 h.
In test [9] the test system is protein complexes binding to an ARE sequence. The test can be described thus: Electrophoretic mobility shift assay with ARE probe, AREc32 nuclear extracts. As to conditions: 10 μM tBHQ with 1 μM ATRA, 24 h. On the technique in general: In EMSA bound probe runs differently from free probe, usually more slowly.
Setting [10] is: 1 μM ATRA with 10 μM tBHQ, acrolein, NF or Sul, 24 h.

For the molecule `CC1=C(/C=C/C(C)=C/C=C/C(C)=C/C(=O)O)C(C)(C)CCC1` [ATRA, all trans-retinoic acid], in test [1] (setting [10]), the “effect on increase in ARE-driven luciferase activity by inducing agents” value was “significantly attenuated” and the “luciferase activity following subtraction of the DMSO control” value is on record as “almost complete ablation of luciferase activity”. Further, in test [1] (1 μM ATRA with cisplatin, melphalan, chlorambucil or BCNU, no BSO), the “induction of ARE-driven luciferase activity by anticancer drugs” value is reported as “prevented”. Also, the “ARE responses to anticancer drugs after BSO pre-treatment” value in test [1] (1 μM ATRA, 50 μM BSO pre-treatment, after subtraction of DMSO control) is on record as “reduced almost to background levels”. The “lag phase before increase of luciferase activity” value in [1] (10 μM tBHQ plus 1 μM ATRA simultaneously) worked out at 16 h. Also, the “suppression of tBHQ induction of luciferase” value in [1] (50 μM tBHQ + 1 μM Retinoic acid, 24 h) was approximately 75%. Further, the “carmustine-mediated induction of luciferase activity” value in [1] (Carmustine 100 μM + BTB09463 5 μM or Retinoic acid 5 μM, 24 hours) is “completely suppress”. Moreover, the “induction of ARE-driven genes (GstM5, GCLC, NQO1, GstA1) by VAD diet in the small intestine” value in test [2] was “almost completely reversed”. Moreover, the “sulforaphane induction of AKR1C protein” value in test [3] was “dramatically reduced”. Further, in test [4] (BTB09463 1, 5, 20, 40 μmol/l or retinoids 0.050, 0.20, 0.50, 2.0 μmol/l), the “constitutive expression of AKR1C1 mRNA” value is “inhibited the constitutive expression of AKR1C1 in a concentration-dependent manner”. Moreover, the “constitutive mRNA levels of NQO1, GCLC and GCLM” value in test [4] (BTB09463 1-40 μmol/l or retinoic acid 0.050-2.0 μmol/l) is “repressed the constitutive mRNA levels of NQO1, GCLC and GCLM in a concentration-dependent manner”. The “association between RARα and Nrf2” value in [5] was “greatly promoted”. Moreover, the “inhibition of tBHQ induction of AKR1C1 mRNA” value in test [6] (1 μM ATRA, after subtracting the DMSO control) is reported as “approximately 85%”. In [6] (10 μM tBHQ plus 1 μM ATRA, 24 h), the “induction of AKR1C1 mRNA by tBHQ on co-incubation” value is 3 fold. For the same molecule, the “reduction of tBHQ-induced AKR1C protein” value in test [7] is given as “approximately 50%”. The “nuclear translocation / nuclear concentration of Nrf2” value in the test with Nrf2 is reported as “did not block nuclear translocation of Nrf2”. For the same molecule, the “binding of Nrf2 to the ARE (pull-down)” value in [8] was “inhibited the binding of Nrf2 to the ARE”. The “binding of complexes to core ARE sequence (EMSA)” value in test [9] is “binding was reduced”.

The values are drawn from patent US20120309087A1, “CANCER THERAPY” (University Court of The University of Dundee, priority 2006, published 2012).
